We go through eight molecules from PMC9415646, “Improving Aqueous Solubility and In Vitro Pharmacokinetic Properties of the 3-Nitroimidazo[1,2-a]pyridine Antileishmanial Pharmacophore” (Pharmaceuticals, 2022).

“And” between values parts separate entries of the source, which are not always exact repeats. Equal values may be shown once. Read-outs that look alike come from different tables or passages of the source.

The test system of data set [1] is T. b. brucei BSF trypomastigotes. The experiment in a line: Antitrypanosomal evaluation on T. b. brucei BSF trypomastigotes (Alamar Blue). As to conditions: Trypanosoma brucei, trypomastigote blood stream form. Type of data set: cell-based. The protocol: The effects of the tested compounds on the growth of T. b. brucei were assessed by Alamar Blue® assay described by Räz et al. T. b. brucei AnTat 1.9 (IMTA, Antwerpen, Belgium) was cultured in MEM with Earle’s salts, supplemented according to the protocol of Baltz et al. with the following modifications: 0.5 mM mercaptoethanol (Sigma Aldrich®, France), 1.5 mM L-cysteine (Sigma Aldrich®), 0.05 mM bathocuproïne sulfate (Sigma Aldrich®) and 20% heat-inactivated horse serum (Gibco®, France), at 37 °C and 5% CO2. They were incubated at an average density of 2000 parasites/100 µL in sterile 96-wells plates (Fisher®, France) with various concentrations of compounds dissolved in DMSO, in duplicate. Appropriate controls suramin, treated with sterile water, and fexinidazole, treated with DMSO on sterile water (reference drugs purchased from Sigma Aldrich, France and Fluorochem, UK) were added to each set of experiments. After a 69 h incubation period at 37 °C, 10 µL of the viability marker Alamar Blue® (Fisher, France) were then added to each well, and the plates were incubated for 5 h. The plates were read in a ENSPIRE microplate reader (PerkinElmer, Waltham, MA, USA) using an excitation wavelength of 530 nm and an emission wavelength of 590 nm. […] EC50 were calculated by nonlinear regression analysis processed on dose-response curves, using GraphPad Prism software (USA). EC50 values were calculated from three separate experiments.

For data set [2], the target named is T1, Albumin from human plasma (Homo sapiens, UniProt P02768).
T1 construct: from tissue; host or cells: plasma
T1 sequence (P02768 25-609): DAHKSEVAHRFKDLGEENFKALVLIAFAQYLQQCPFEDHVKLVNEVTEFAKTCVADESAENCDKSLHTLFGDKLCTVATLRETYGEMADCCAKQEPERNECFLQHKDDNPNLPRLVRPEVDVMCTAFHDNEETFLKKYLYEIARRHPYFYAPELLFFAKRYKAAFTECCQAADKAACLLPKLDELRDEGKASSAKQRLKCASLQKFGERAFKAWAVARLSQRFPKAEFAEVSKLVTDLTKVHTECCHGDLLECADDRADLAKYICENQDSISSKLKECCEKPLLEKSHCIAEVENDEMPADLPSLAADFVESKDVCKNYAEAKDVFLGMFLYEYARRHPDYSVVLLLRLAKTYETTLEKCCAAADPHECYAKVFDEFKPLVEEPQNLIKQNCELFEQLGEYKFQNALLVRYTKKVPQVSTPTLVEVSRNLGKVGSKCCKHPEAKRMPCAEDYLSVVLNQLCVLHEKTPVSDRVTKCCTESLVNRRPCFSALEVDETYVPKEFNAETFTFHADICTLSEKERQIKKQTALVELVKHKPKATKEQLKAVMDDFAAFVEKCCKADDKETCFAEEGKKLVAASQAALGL
The experiment in a line: Plasma protein (albumin) binding. The format is in vitro ADME. The protocol: Plasma doped with the tested compound was incubated at 37 °C in triplicate in one of the compartments of the insert, the other compartment containing a phosphate buffer solution at pH 7.2. After stirring for 4 h at 300 rpm, a 25 μL aliquot of each compartment was taken and diluted; the dilution solution was adapted so as to obtain an identical matrix for all the compartments after dilution. Parallel, reprocessing of a plasma doped but not incubated was used to assess recovery. The LC-MS used for this study was a Waters® Acquity I-Class/Xevo TQD, equipped with a Waters® Acquity BEH C18 column, 50 × 2.1 mm, […]. The mobile phases were (A) ammonium acetate 10 mM and (B) acetonitrile with 0.1% formic acid. The injection volume was 1 µL and the flow rate 600 µL/min. Chromatographic analysis, total duration of 4 min, was performed along the following gradient: 0 < t < 0.2 min, 2% (B); 0.2 < t < 2 min, linear increase to 98% (B); 2 < t < 2.5 min, 98% (B); 2.5 < t < 2.6 min, linear decrease to 2% (B); 2.6 < t < 4 min, 2% (B). Carbamazepine, oxazepam, warfarin and diclofenac were used as reference drugs and propranolol as internal standard. The unbound fraction (fu) was calculated according to the following formula: fu=APlasma, 4h−APBS,4h/APlasma, 4h×100 . The percentage of recovery was calculated according to the following formula: % Recovery=(VPBS×APBS,4h)+(VPlasma×APlasma,4h)/(VPlasma×APlasma,0h) where A is the ratio of the area under peak of the studied molecule and the area under peak of the internal standard (propranolol 200 nM). V is the volume of solution present in the compartments (VPBS = 350 µL and Vplasma = 200 µL).

Data set [3] concerns L. infantum axenic amastigotes. More on the design: method as in PMID 24080103, PMID 30655943. As to conditions: previously identified hit compounds; cited from earlier work.
The test system of the next data set is HepG2 cell line. Also on record: method as in PMID 24080103, PMID 30655943. As to conditions: previously identified hit compounds; cited from earlier work.
A further data set has as its system THP1 cell line. Also on record: method as in PMID 24080103, PMID 30655943. As to conditions: previously identified hit compounds; cited from earlier work.
For data set [4], the system named is T. b. brucei BSF trypomastigotes. Also on record: method as in PMID 30655943. As to conditions: previously evaluated hit compounds; cited from earlier work.

The molecule `O=[N+]([O-])c1c(CS(=O)(=O)c2ccc(O)cc2)nc2c(Sc3ccc(Cl)cc3)cc(Cl)cn12` [Compound 3a, 4-{[(6-Chloro-8-[(4-Chlorophenyl)thio]-3-Nitroimidazo[1,2-a]pyridin-2-yl)methyl]sulfonyl}phenol] yielded an EC50 in data set [1] of 0.78 ± 0.05 µM.

`CSc1ccc(OCc2ncc([N+](=O)[O-])n2C)cc1` [Fexinidazole, reference compound] came in with an EC50 in data set [1] of 1.4 ± 0.5 µM.

Regarding `O=[N+]([O-])c1c(CS(=O)(=O)CCC(F)(F)F)nc2c(Sc3ccc(Cl)cc3)cc(Cl)cn12` [Compound 3i, 6-Chloro-8-[(4-Chlorophenyl)thio]-3-Nitro-2-[(3,3,3-Trifluoropropylsulfonyl)methyl]imidazo[1,2-a]pyridine], in data set [2], the “Albumin Binding” value is 99.8% and 99.76%.

Turning to `O=[N+]([O-])c1c(CS(=O)(=O)c2ccccc2)nc2c(Br)cc(Cl)cn12` [Hit A, 8-Bromo-6-chloro-3-nitro-2-(phenylsulfonylmethyl)imidazo[1,2-a]pyridine, reference compound], the “Albumin Binding” value in data set [2] was 96.50%. Further, the figures for the EC50 in data set [3] and in data set [4] were 16.4 ± 1.3 µM and 1.4 ± 0.4 µM, respectively. Also, the CC50 was > 15.6 µM in the data set on HepG2 cell line and > 100 µM in the data set on THP1 cell line.

Turning to `O=[N+]([O-])c1c(CS(=O)(=O)c2ccccc2)nc2c(Sc3ccc(Cl)cc3)cc(Cl)cn12` [Hit B, reference compound], the “Albumin Binding” value in data set [2] is 99.95%. In addition, the EC50 was 1.7 ± 0.3 µM in data set [3] and 0.95 ± 0.05 µM in data set [4]. In addition, the figures for the CC50 in the data set on HepG2 cell line and with THP1 cell line were > 100 µM and > 62.5 µM, respectively.

Turning to `O=[N+]([O-])c1c(CS(=O)(=O)c2ccc(F)cc2)nc2c(Sc3ccc(Cl)cc3)cc(Cl)cn12` [Compound 3c, 6-Chloro-8-[(4-Chlorophenyl)thio]-2-[(4-Fluorophenylsulfonyl)methyl]-3-Nitroimidazo[1,2-a]pyridine], a half-maximal response in data set [1] (EC50) required 0.57 ± 0.02 µM.

With `O=[N+]([O-])c1c(CS(=O)(=O)c2ccc(C(F)(F)F)cc2)nc2c(Sc3ccc(Cl)cc3)cc(Cl)cn12` [Compound 3d, 6-Chloro-8-[(4-Chlorophenyl)thio]-3-Nitro-2-[(4-Trifluoromethylphenylsulfonyl)methyl]imidazo[1,2-a]pyridine], the concentration giving a half-maximal response (EC50) in data set [1] came to 0.89 ± 0.07 µM.

Turning to `O=[N+]([O-])c1c(CS(=O)(=O)CCC(F)(F)F)nc2c(-c3ccncc3)cc(Cl)cn12` [Compound 7, 6-Chloro-3-Nitro-8-(Pyridin-4-yl)-2-[(3,3,3-Trifluoropropylsulfonyl)methyl]imidazo[1,2-a]pyridine], in data set [2], the “Albumin Binding” value was 88.6% and 88.65%.
